Results from publication PMC2873402, “Discovery of High-Affinity Protein Binding Ligands – Backwards” (PLoS ONE, 2010).
Like-named read-outs stand apart in the source and are kept apart here. Bridge positions count the residues as written; N and C are the ends. Ends that are not written are not given here. I, II: the chains in the order shown. * marks the point of attachment. StBu = CC(C)(C)S*

What was measured:
AKT1 [1] = target: T1, AKT1 (Homo sapiens, UniProt P31749); assay: IP of 35S-labeled AKT1, scintillation counting; format: binding; parameters: N-terminal vector leader of pEXP5-NT (6xHis + TEV site by own knowledge of the vector); made in house; host or cells: Expressway Mini Cell-Free Expression System (in vitro translation); details: AKT1 approximately 3% of total protein
T1 sequence (P31749 whole entry): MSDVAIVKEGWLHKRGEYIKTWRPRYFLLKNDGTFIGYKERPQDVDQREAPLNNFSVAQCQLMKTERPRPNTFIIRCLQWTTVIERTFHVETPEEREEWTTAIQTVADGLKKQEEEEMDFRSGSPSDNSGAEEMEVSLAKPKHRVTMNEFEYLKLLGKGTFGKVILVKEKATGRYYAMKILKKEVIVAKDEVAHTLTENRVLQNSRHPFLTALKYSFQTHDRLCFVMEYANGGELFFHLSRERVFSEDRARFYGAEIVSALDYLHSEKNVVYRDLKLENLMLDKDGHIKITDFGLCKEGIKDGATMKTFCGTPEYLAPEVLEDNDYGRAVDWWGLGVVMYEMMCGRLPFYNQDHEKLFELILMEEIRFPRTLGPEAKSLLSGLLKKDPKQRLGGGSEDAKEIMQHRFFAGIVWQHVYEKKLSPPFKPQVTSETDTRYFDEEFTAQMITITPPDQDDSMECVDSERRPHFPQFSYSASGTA
Method: In order to validate the Kd determined by SPR, an additional IP was performed using ^35S-labeled AKT1 produced by in vitro translation (IVT). The translation mixture contained 12 µg of AKT1 in the presence of 400 µg of total protein and a concentration series of ^35S-labeled AKT1 from 41.5 nM to 80 pM was prepared by dilution of the 35-S-labeled AKT1 IVT mixture. The synbody was then used to precipitate the ^35S-labeled AKT1 in the same manner as before. Bound AKT1 was quantified using liquid scintillation counting and plotted as a function of AKT1 concentration.
AKT1 DNA was assembled by ligation of 42-bp oligonucleotides by PCR according to a procedure developed internally (Borovkov, et al. submitted). The PCR product was cloned into pEXP5-NT topo expression vector (Life Technologies), purified using a Qaigen PCR purification kit, and quantified by Nanodrop spectrophotometer (Thermo Scientific). […]
For all IP experiments, either a 1 µM or 250 nM solution of biotin-conjugated synbody was captured on 20 µL of streptavidin coated paramagnetic M-280 Dynabeads (Life Technologies) according to the manufacturers protocol. […] The samples were analyzed by SDS-PAGE gel with Western Blot detection using the appropriate antibody and imaged on a GE Healthcare Typhoon Trio.

AKT1 [2] = target: T1, AKT1; assay: SPR determination of Kd / binding kinetics on AKT1; parameters: purchased Life Technologies
Method: To a solution of AKT1 (25µg, 4.16×10^−10 moles, 1.0 equiv.) in 50mM Na2CO3 in 150mM NaCl, pH 9.0 (200 µl), was added a solution of NHS-LC-LC-Biotin (Thermo Scientific) (9.4 µl, 8.32×10^−10 moles, 2.0 equiv.) in DMSO. The reaction was kept on ice at 0°C with frequent agitation for 2 hours, before the mixture was transferred to a 10 kDa Millipore Microcon filter and diluted with HBS-N (200 µl). The excess biotin was removed by spinning the filter at 12,000 G until the volume on top of the filter had been reduced to 0.25 the original volume. The retentate was washed with an additional 200 µl of HBS-N and spun for a further 15 minutes. The filter was then flipped over and the protein recovered (15 µg, 60%). After filtration, an appropriate volume of 10× HBS-N was added to the sample to increase the HBS-N concentration to a 1× equivalent.
Determination of the binding kinetics of the synbody on AKT1 was performed on a Biacore A-100. The series S sensor chip CM5, amine coupling reagents and HBS-EP were obtained from GE Healthcare. A standard amine immobilization protocol was performed at 25°C using NaHCO3 (10mM in 150mM NaCl, pH 4.5) as the immobilization buffer. Spots 1,2 and 3 on each of the four flow cells of the CM-5 dextran chip were activated by a 10 minute injection of a freshly prepared 1∶1 solution of 40 0mM EDC : 100 mM NHS in water. The NHS-carboxy groups of spot 1 of the dextran surface were treated with a solution of neutravidin (50 µg/ml) in sodium acetate (pH 5.0) for 8 mins at a flow rate of 10 µl/min. Any residual active sites were then quenched by a 5 min pulse of ethylene diamine (1M, pH 8.5). Similarly neutravidin was coupled to spots 2 and 3 via a 12 and 16 min injection cycle respectively, followed by quenching. An additionally 7 min injection of ethylene diamine was then pulsed over spots 1–3 to ensure no activated sites remained. […]
For high-resolution kinetics, biotin-tagged AKT1 was captured in multiple spot densities with Rmax's ranging from 20–100 RUs. […] Association and dissociation were monitored for 3 and 16 min, respectively. […]

AKT3 = assay: IP of AKT isoforms spiked into A549 lysate: AKT3; format: binding; details: 250 ng of each isoform in 500 µg A549 lysate, Western Blot
Method: This apparent specificity was investigated further by performing an IP using 250 ng of each isoform of AKT spiked into 500 µg of A-549 cell lysate.
For all IP experiments, either a 1 µM or 250 nM solution of biotin-conjugated synbody was captured on 20 µL of streptavidin coated paramagnetic M-280 Dynabeads (Life Technologies) according to the manufacturers protocol. Synbody coated beads were washed five times with 1 mL of 100 mM phosphate buffered saline containing 0.05% Tween-20 (PBST) and incubated overnight at 4°C with shaking in the desired amount of target protein in A549 cell lysate. For Kd determination experiments, serial dilutions of AKT1 or ABL1 were prepared in binding buffer. After binding, beads were washed five times with 1 mL of PBST and heated at 70°C in 20 µL of 1× LDS loading buffer (Invitrogen) for 10 minutes. The samples were analyzed by SDS-PAGE gel with Western Blot detection using the appropriate antibody and imaged on a GE Healthcare Typhoon Trio.

kon (AKT1 [2]; Biacore A-100, biotin-labeled AKT1 on neutravidin, synbody 25 nM to 0.78 nM, 1:1 binding model, read-out: association rate, ka): 200000 M⁻¹ s⁻¹
koff (AKT1 [2]; Biacore A-100, biotin-labeled AKT1 on neutravidin, synbody 25 nM to 0.78 nM, 1:1 binding model, read-out: dissociation rate, kd): 0.0003 s⁻¹
koff (AKT1 [2]; Figure 3A, 12.5 and 6.25 nM synbody, Biacore A-100, 1:1 binding model, read-out: koff): 0.000295 s⁻¹
Substance: I: AHKVVPQRQIRHAYNRYGSGKC(StBu)-NH2 / II: FRGWAHIFFGPHVIYRGGSG (amide I:21-II:C) [synbody]
specificity for AKT1 in IVT lysate (AKT1 [1]): specifically binds AKT1 from a complex background
IP of AKT3 (isoform selectivity) (AKT3): relatively little
